Data set [1] can be described thus: Tested for bone marrow cell toxicity expressed as burst forming unit for erythrocyte at a compound concentration of 10 mM in experiment-2. The conditions noted are these: human. Type of data set: cell-based.
In data set [2] the test system is Mus musculus. In words: Effect of compound on Friend Complex Murine Leukemia Virus (F-MuLV) induced splenomegaly, spleen weights at a dose of 4 mg/kg. Type of data set: functional.
Data set [3] in a line: Tested for bone marrow cell toxicity expressed as colony forming unit of granulocyte -macrophage at a compound concentration of 3.6/30 mM in experiment-1. Particulars: human. The format is cell-based.
In data set [4] the test system is Mus musculus. In words: Effect of compound on Friend Complex Murine Leukemia Virus (F-MuLV) induced splenomegaly, expressed as percent inhibition at a dose of 12 mg/kg. Type of data set: functional.
Data set [5] concerns Mus musculus. Briefly: Effect of compound on Friend Complex Murine Leukemia Virus (F-MuLV) induced splenomegaly, spleen weights at a dose of 12 mg/kg. The format is functional.
The test system of data set [6] is Mus musculus. Briefly: Effect of compound on Friend Complex Murine Leukemia Virus (F-MuLV) induced splenomegaly, spleen weights at a dose of 40 mg/kg. The format is functional.
The nature of data set [7]: Tested for bone marrow cell toxicity expressed as colony forming unit of granulocyte -macrophage at a compound concentration of 36/30 mM in experiment-1. The conditions noted are these: human. The format is cell-based.
Data set [8] in a line: Tested for bone marrow cell toxicity expressed as burst forming unit for erythrocyte at a compound concentration of 100 mM in experiment-2. Type of data set: cell-based. The conditions noted are these: human.
A short description of data set [9]: Tested for bone marrow cell toxicity expressed as burst forming unit for erythrocyte at a compound concentration of 0.36 mM in experiment-1. Type of data set: cell-based. The conditions noted are these: human, 360 µM.
The nature of data set [10]: Tested for bone marrow cell toxicity expressed as burst forming unit for erythrocyte at a compound concentration of 1 mM in experiment-2. Particulars: human, 1000 µM. Type of data set: cell-based.
Data set [11] is described as follows: Tested for bone marrow cell toxicity expressed as colony forming unit of granulocyte -macrophage at a compound concentration of 10 mM in experiment-2. Type of data set: cell-based. The conditions noted are these: human.
The nature of data set [12]: Tested for bone marrow cell toxicity expressed as burst forming unit for erythrocyte at a compound concentration of 3.6/3 mM in experiment-1. Type of data set: cell-based. Particulars: human.
The nature of data set [13]: Tested for bone marrow cell toxicity expressed as colony forming unit of granulocyte -macrophage at a compound concentration of 1 mM in experiment-2. Type of data set: cell-based. Particulars: human, 1000 µM.
A short description of data set [14]: Tested for bone marrow cell toxicity expressed as colony forming unit of granulocyte -macrophage at a compound concentration of 360 mM in experiment-1. Type of data set: cell-based. Particulars: human.
Data set [15] in a line: Tested for bone marrow cell toxicity expressed as colony forming unit of granulocyte -macrophage at a compound concentration of 3.6/30 mM in experiment-2. The format is cell-based. The conditions noted are these: human.
Data set [16] has as its system Mus musculus. In words: Effect of compound on Friend Complex Murine Leukemia Virus (F-MuLV) induced splenomegaly, expressed as percent inhibition at a dose of 40 mg/kg. The format is functional.
A short description of data set [17]: Tested for bone marrow cell toxicity expressed as colony forming unit of granulocyte -macrophage at a compound concentration of 36/30 mM in experiment-2. Type of data set: cell-based. Particulars: human.
Data set [18] is described as follows: Tested for bone marrow cell toxicity expressed as burst forming unit for erythrocyte at a compound concentration of 3.6/3 mM in experiment-2. The conditions noted are these: human. The format is cell-based.
A short description of data set [19]: Tested for bone marrow cell toxicity expressed as burst forming unit for erythrocyte at a compound concentration of 0.036 mM in experiment-2. The format is cell-based. Particulars: human, 36 µM.
A short description of data set [20]: Tested for bone marrow cell toxicity expressed as colony forming unit of granulocyte -macrophage at a compound concentration of 0.36 mM in experiment-1. The format is cell-based. Particulars: human, 360 µM.
Data set [21] can be described thus: Tested for bone marrow cell toxicity expressed as burst forming unit for erythrocyte at a compound concentration of 36/30 mM in experiment-1. Type of data set: cell-based. The conditions noted are these: human.
Data set [22] in a line: Tested for bone marrow cell toxicity expressed as colony forming unit of granulocyte -macrophage at a compound concentration of 100 mM in experiment-2. The format is cell-based. Particulars: human.
Data set [23] can be described thus: Tested for bone marrow cell toxicity expressed as colony forming unit of granulocyte -macrophage at a compound concentration of 300 mM in experiment-1. Type of data set: cell-based. Particulars: human.
Data set [24] can be described thus: Tested for bone marrow cell toxicity expressed as colony forming unit of granulocyte -macrophage at a compound concentration of 0.036 mM in experiment-1. Type of data set: cell-based. Particulars: human, 36 µM.
Data set [25] can be described thus: Tested for bone marrow cell toxicity expressed as burst forming unit for erythrocyte at a compound concentration of 0.036 mM in experiment-1. Type of data set: cell-based. The conditions noted are these: human, 36 µM.
The test system of data set [26] is Mus musculus. Briefly: Effect of compound on Friend Complex Murine Leukemia Virus (F-MuLV) induced splenomegaly, expressed as percent inhibition at a dose of 4 mg/kg. The format is functional.
The nature of data set [27]: Tested for bone marrow cell toxicity expressed as burst forming unit for erythrocyte at a compound concentration of 36/30 mM in experiment-2. Type of data set: cell-based. The conditions noted are these: human.
Data set [28] is described as follows: Tested for bone marrow cell toxicity expressed as burst forming unit for erythrocyte at a compound concentration of 360 mM in experiment-1. Type of data set: cell-based. Particulars: human.
The nature of data set [29]: Tested for bone marrow cell toxicity expressed as colony forming unit of granulocyte -macrophage at a compound concentration of 0.3 mM in experiment-2. Type of data set: cell-based. The conditions noted are these: human, 300 µM.
Data set [30] can be described thus: Tested for bone marrow cell toxicity expressed as burst forming unit for erythrocyte at a compound concentration of 3 mM in experiment-2. The conditions noted are these: human, 3000 µM. The format is cell-based.
A short description of data set [31]: Tested for bone marrow cell toxicity expressed as burst forming unit for erythrocyte at a compound concentration of 10 mM in experiment-1. The format is cell-based. The conditions noted are these: human.
Data set [32] is described as follows: Tested for bone marrow cell toxicity expressed as colony forming unit of granulocyte -macrophage at a compound concentration of 3 mM in experiment-1. The format is cell-based. The conditions noted are these: human, 3000 µM.
Data set [33] can be described thus: Tested for bone marrow cell toxicity expressed as colony forming unit of granulocyte -macrophage at a compound concentration of 3 mM in experiment-2. Particulars: human, 3000 µM. Type of data set: cell-based.
The nature of data set [34]: Tested for bone marrow cell toxicity expressed as colony forming unit of granulocyte -macrophage at a compound concentration of 30 mM in experiment-2. The format is cell-based. Particulars: human.
The nature of data set [35]: Tested for bone marrow cell toxicity expressed as burst forming unit for erythrocyte at a compound concentration of 3 mM in experiment-1. Type of data set: cell-based. Particulars: human, 3000 µM.
The nature of data set [36]: Tested for bone marrow cell toxicity expressed as colony forming unit of granulocyte -macrophage at a compound concentration of 10 mM in experiment-1. Type of data set: cell-based. The conditions noted are these: human.
A short description of data set [37]: Tested for bone marrow cell toxicity expressed as burst forming unit for erythrocyte at a compound concentration of 30 mM in experiment-2. Type of data set: cell-based. Particulars: human.
A short description of data set [38]: Tested for bone marrow cell toxicity expressed as colony forming unit of granulocyte -macrophage at a compound concentration of 1 mM in experiment-1. Type of data set: cell-based. The conditions noted are these: human, 1000 µM.
The nature of data set [39]: Tested for bone marrow cell toxicity expressed as burst forming unit for erythrocyte at a compound concentration of 30 mM in experiment-1. The format is cell-based. The conditions noted are these: human.
Data set [40] is described as follows: Tested for bone marrow cell toxicity expressed as burst forming unit for erythrocyte at a compound concentration of 100 mM in experiment-1. Type of data set: cell-based. The conditions noted are these: human.
The nature of data set [41]: Tested for bone marrow cell toxicity expressed as burst forming unit for erythrocyte at a compound concentration of 0.3 mM in experiment-2. The format is cell-based. Particulars: human, 300 µM.
Data set [42] in a line: Tested for bone marrow cell toxicity expressed as burst forming unit for erythrocyte at a compound concentration of 1 mM in experiment-1. The conditions noted are these: human, 1000 µM. The format is cell-based.
The nature of data set [43]: Tested for bone marrow cell toxicity expressed as colony forming unit of granulocyte -macrophage at a compound concentration of 100 mM in experiment-1. Type of data set: cell-based. The conditions noted are these: human.
The subject of data set [44] is CCRF-CEM. Briefly: In vitro anti -HIV activity of compound determined against the LAV Bru strain infected CEM cells at dose up to 100 uM. Type of data set: functional, Homo sapiens.
The subject of data set [45] is CCRF-CEM. In words: In vitro anti -HIV activity of compound determined against the LAV Bru infected CEM cells; Highly cytotoxic at low dose. The format is functional, Homo sapiens.

These results are taken from ChEMBL document CHEMBL1151484, “Preparation and anti-HIV activity of N-3 amino substituted thymidine nucleoside analogs” (Bioorg Med Chem Lett, 1992).

The inhibition in vivo is the change of the read-out against control, counted positive when it falls. A lower inhibition in vivo goes with a response near the control.

SMILES strings stand for the structures.

For the compound `Cc1cn(C2CC(N=[N+]=[N-])C(CO)O2)c(=O)n(N)c1=O` (stereo unspecified), the BFU in [1] was 170; in data set [8] it was 158; in data set [9], 142; in [10] it was 249; in [12], 140; in [18], 218. The BFU in data set [19] is on record as 10; in data set [21], 98; in [25] it was 94; in [27], 198; in [28] it was 111. Besides, the Spleen weight was 907 mg in [2], 715 mg in data set [5] and 607 mg in data set [6]. Besides, the CFU in [3] came out at 31.3; in data set [7], 28.3; in data set [11], 10; in [13] it was 12.3; in [14], 0.7; in data set [15] it was 14. Further, the CFU in [17] was 11.3; in data set [20], 31.3; in data set [22], 9.3; in [23] it was 0.3; in data set [24], 48.3. Also, in data set [4], at 12 mg/kg the inhibition in vivo was 46%. For the same compound, the inhibition in vivo at 40 mg/kg in [16] worked out at 55%. In [26], the inhibition in vivo at 4 mg/kg amounted to 28%.

Turning to `Cc1cn([C@H]2C[C@H](N=[N+]=[N-])[C@@H](CO)O2)c(=O)[nH]c1=O` [ZIDOVUDINE], the CFU in [29] came out at 10.7; in [11] it was 1; in data set [13], 4.7; in data set [32], 18.7; in [33] it was 4.5; in data set [34] it was 0. Further, the values for the CFU in data set [36], in data set [38] and in data set [43] were 4.3, 33.4 and 1, respectively. The BFU in [1] is 79; in [30], 79; in data set [10] it was 132; in data set [31], 76; in data set [35], 88; in data set [37] it was 59. Also, the BFU in data set [39] stood at 46; in data set [40] it was 4; in data set [41], 143; in data set [42] it was 120. In addition, the Spleen weight in data set [2] was 706 mg; in data set [5] it was 669 mg; in [6], 357 mg. The compound further gave an inhibition in vivo at 12 mg/kg in data set [4] of 50%. Moreover, the inhibition in vivo at 40 mg/kg in data set [16] is 78%. This compound also yielded an inhibition in vivo at 4 mg/kg in data set [26] of 46%.

`Cc1cn(C2C=CC(CO)O2)c(=O)n(N)c1=O` (stereo unspecified) returned an Activity in [44] of 40 µM.

For `Cc1cn([C@H]2C[C@H](F)[C@@H](CO)O2)c(=O)[nH]c1=O` [ALOVUDINE], the Activity in data set [45] was found to be 0.1 µM.

In [45], `Cc1cn(C2CC(F)C(CO)O2)c(=O)n(N)c1=O` (stereo unspecified) displayed an Activity of 0.1 µM.
